Results on 1 compound are retold here after US10155742B2, “Halofuginol derivatives and their use in cosmetic and pharmaceutical compositions” (President and Fellows of Harvard College, priority 2012, dated 2018).

The test system of one data set is mTORC1 signaling in MEFs. Description: mTORC1 pathway phosphorylation by Western blot. Format: cell-based, mouse. Particulars: 100 nM HF, FIG. 16. Here is the method: MEFs growing in DME/10% FCS were treated with 100 nM HF or 0.5 μM rapamycin and analyzed by Western blot for phosphorylation of component of the mTor signaling pathway.
Background: In western blotting, separated proteins are transferred to a membrane and probed.

Data set [1] concerns the target T1, ProRS (amino acids 998-1513 of human EPRS) (Homo sapiens, UniProt P07814).
T1 construct: Purified 6-his tagged ProRS (amino acids 998-1513 of human EPRS) was immobilized on N-NTA beads; made in house; host or cells: E. coli BL21(DE3), plasmid pKS509
T1 sequence (P07814 998-1512 limits assumed): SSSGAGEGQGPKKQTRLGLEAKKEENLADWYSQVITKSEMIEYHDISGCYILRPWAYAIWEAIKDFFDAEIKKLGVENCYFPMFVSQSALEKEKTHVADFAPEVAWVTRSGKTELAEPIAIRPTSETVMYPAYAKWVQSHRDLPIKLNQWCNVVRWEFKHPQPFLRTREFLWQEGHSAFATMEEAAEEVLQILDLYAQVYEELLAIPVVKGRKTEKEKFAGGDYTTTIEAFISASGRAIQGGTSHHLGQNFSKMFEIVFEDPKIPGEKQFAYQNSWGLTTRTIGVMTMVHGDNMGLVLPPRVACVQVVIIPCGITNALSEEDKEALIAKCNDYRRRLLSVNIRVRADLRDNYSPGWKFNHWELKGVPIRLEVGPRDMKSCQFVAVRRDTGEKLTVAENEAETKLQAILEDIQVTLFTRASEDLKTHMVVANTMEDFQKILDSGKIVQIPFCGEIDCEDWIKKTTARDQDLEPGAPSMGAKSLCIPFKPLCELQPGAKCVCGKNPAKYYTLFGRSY
Nature of the data set: [3H]-HFol binding to immobilized ProRS. Particulars: FIG. 3A. The protocol:
B) [^3H]-HFol binding was assayed as described above in the presence of indicated concentrations of proline. […] IMR90 lung fibroblasts were treated with a siRNAs directed against EPRS (Dharmacon) or a control siRNA mixture for 48 hours, and then treated with HF for 2 hours (pGCN2) and examined for EPRS protein levels, GCN2 total protein and phospho-GCN2 by Western blot. D) EPRS depleted IMR90 cells were compared to control cells with respect to HF induction of the AAR marker CHOP by Q-PCR. Equal concentrations of total cellular protein were loaded in each Western blot lane. CHOP expression was standardized to expression of phosphoglycerate kinase 1 (PGK1) and glyceraldehyde-3-phosphate-dehydrogenase (GAPDH). Data shown are representative of three separate experiments.
Prolyl sulfamoyl adenosine (ProSAd) or alanyl sulfamoyl adenosine (AlaSAd), analogs of the corresponding aminoacyl adenylate, were coincubated with [^3H]-HFol as in FIG. 2. […] Binding of [^3H]-HFol was assayed as in FIG. 3, except that the nucleotide type and concentration was varied as indicated.
To examine HF binding to ProRS, ^3H HFol was synthesized by American Radiochemicals (St. Louis) by reduction of MAZ1310 (3) at the ketone with NaB^3H4, followed by removal of the Boc protecting group with 10% trifluoroacetic acid in dichloromethane, and HPLC purification of the ^3H HFol. 100 nM ^3H HFol was incubated with ProRS immobilized on Ni-NTA beads (Pierce) in 50 mM Tris pH 7.5, 5 mM MgCl2, 20 mM Imidazole, 1 mM DTT, 10% glycerol, and nucleotides, proline, or HF derivatives at room temperature for 10 minutes as indicated. After incubation, beads were washed twice with ice-cold wash buffer (50 mM Tris 7.5; 20 mM Imidazole; 1 mM DTT, 20% glycerol). ^3H HFol bound after washing was measured by liquid scintillation counting. Ni-NTA beads incubated with E. coli extracts lacking tagged ProRS were used as a background reference in all experiments.

For data set [2], the system named is CD4+ T cell, CD8+ T cell, and B220+ B cell activation. The conditions noted are these: from PCT/US08/09774; cited from earlier work.
For data set [3], the system named is prolyl-tRNA charging in the RRL system. Description: tRNA charging in RRL (14C Pro or 35S Met incorporation into tRNA). The conditions noted are these: FIG. 2D.
Data set [4] relates to primary human prostate stromal (hPrSc) cells, s100a4. Description: S100A4 mRNA in primary human prostate stromal cells. Format: cell-based. The conditions noted are these: with or without TGF 10 ng/ml, FIG. 28. Here is the method:
Primary human prostate stromal (hPrSc) cells were left in low-serum media (0.2%) for 24 hours, and treated consecutively twice for 48 hours with or without tumor-growth factor beta (TGF; 10 ng/ml), halofuginone (HF) or halofuginol (HFol) at the concentrations indicated. Relative mRNA levels of the fibrosis/tissue invasion marker s100a4 was measured by quantitative real-time PCR using glyceraldehyde-3-phosphate dehydrogenase (GAPDH) as internal control.

The conditions of data set [5]: de Jonge et al. 2006; cited from earlier work.
Data set [6] has as its target T2, prolyl tRNA synthetase domain of human EPRS (ProRS) (Homo sapiens, UniProt P07814).
T2 sequence (P07814 998-1512 limits assumed): T1 sequence (P07814 998-1512 limits assumed)
Description: biochemical.
Description: Activity of the Prolyl tRNA synthetase domain of EPRS (ProRS) was measured as ^3H Pro incorporation into the charged tRNA pool. […] Purified enzyme was visualized as a single band by Laemmli gel electrophoresis/Coomassie staining.
Purified enzyme was visualized as a single band by Laemmli gel electrophoresis/Coomassie staining. […] In preliminary experiments, the assay was established to be linear over the time (6 min) and conditions used (30 degrees, 2 mM ATP, 1 μg/μl total tRNA purified from rabbit liver).
For the rapid, quantitative isolation of aminoacylated tRNA^pro from synthetase reaction mixtures, reactions were stopped with 100 μl of ice cold 20 mM MOPS pH6.2, 200 mM NaCl, 10 mM EDTA, 30% Glycerol and placed on ice. Samples were added to 15 μl of packed Mono Q HP beads (GE Healthcare) equilibrated in the same buffer. Samples were incubated with beads on ice for 10 min, beads were pelleted by 5 sec centrifugation in a tabletop microfuge and washed 3× 1 ml of wash buffer (20 mM MOPS pH6.2, 50 mM NaCl), and recovered pellets counted in a liquid scintillation counter. Background binding of ^3H Pro to beads (using reaction mix with either no enzyme added or no tRNA added) was negligible (20-40 cpm).

Another data set relates to dermal ECM deposition. Particulars: intraperitoneally, added to food, or applied locally; Pines et al. 2003; cited from earlier work.

Broadly, the Ki is a dissociation constant, usually derived from enzyme kinetics or from competition with a known ligand. Low values mean higher affinity, high ones lower affinity. Consider `O=C(C[C@H]1NCCC[C@@H]1O)Cn1cnc2cc(Br)c(Cl)cc2c1=O` (racemic) [HF, 7-bromo-6-chloro-3-[3-(3-hydroxy-2-piperidinyl)-2-oxopropyl]-4(3H)-quinazolinone], for which the “inhibition of mTORC1 signaling / downstream targets” value is “without concomitant inhibition” in the data set on mTORC1 signaling in MEFs and “does not directly inhibit” in the data set with mTORC1 signaling in MEFs (listed as halofuginone). Besides, the “competition of [3H]-HFol binding to ProRS” value in data set [1] is on record as “competed”. In addition, in data set [2], the “concentration that generally inhibits CD4+ T cell, CD8+ T cell, and B220+ B cell activation” value is 20 to 40 nM. Also, in data set [3], the “incorporation of 14C-Pro into tRNA” value is “inhibited”. The “expression of the activated fibroblast marker S100A4” value in data set [4] is recorded as “inhibit”. Further, in data set [5], the “toxicity in humans (nausea, vomiting, fatigue, possibly bleeding complications)” value is “some toxicity”. Moreover, affinity in data set [6] was put at a Ki of 18.3 nM. The “excess dermal ECM deposition” value with dermal ECM deposition is “reduces”.
